This is an account of results in patent US8883437B2, “Nitroreductase enzymatic substrates” (bioMérieux S.A., priority 2010, dated 2014).

For assay [1], the system named is P. rettgeri NCTC 7475. The assay can be described thus: Nitroreductase substrate in Columbia medium, growth and colony color. Type of assay: cell-based. The following applies: 40 mg substrate in 400 ml Columbia medium, 24 hours at 37° C., colonies examined visually. Here is the method: (§1) 40 mg of substrate were dissolved in 4 ml of dimethylsulfoxide and added to 400 ml of previously autoclaved Columbia medium. The medium was distributed in Petri dishes 90 mm in diameter at the rate of 20 ml per dish. Ten strains of microorganisms obtained from collections and belonging to various species of bacteria and yeasts are inoculated as spots of about 10 000 colony forming units. The media are incubated for 24 hours at 37° C. and then the colonies formed are examined visually.

Assay [2] concerns E. cloacae NCTC 11936. The description is as above. Type of assay: cell-based. As to conditions: 40 mg substrate in 400 ml Columbia medium, 24 hours at 37° C., colonies examined visually. Here is the method: as §1

For `C[N+]1=C(C=Cc2ccc([N+](=O)[O-])cc2)C(C)(C)c2ccccc21.[I-]` [Iodinated 2-(4-nitrostyryl)-1,3,3-trimethylindolinium], the Color entry in assay [1] and in assay [2] was “Pale pink” throughout.
